Laboratory results: US20240342244A1, “Isthmin Protein Therapeutics for the Treatment of Non-Alcoholic Fatty Liver Disease” (The Board of Trustees of the Leland Stanford Junior …, priority 2021, published 2024)

How the values were obtained:
pAKT^S473 [1] = test: Signaling induced by ISM1 or insulin in 3T3-F442A cells pre-treated with inhibitors; assay type: cell-based; details: for effect of inhibitor on pAKT^S473 phosphorylation induced by ISM1 and insulin: ISM1 100 nM or insulin 100 nM, 3T3-F442A cells
Protocol: (§1) Western blots and molecular analyses. For western blotting, homogenized tissues or whole-cell lysates, samples were lysed in RIPA buffer containing protease inhibitor cocktail (Roche) and phosphatase inhibitor cocktail (Roche). Cell lysates were centrifuged at 14,000×g for 15 min and supernatants were prepared in 4×LDS Sample Buffer (Invitrogen) and separated by SDS-PAGE and transferred to Immobilon 0.45 μm membranes (Millipore). For Western blotting of plasma samples, 1 μl of plasma was prepared in 2× sample buffer (Invitrogen) with reducing agent, boiled, and analyzed using Western blot against indicated antibody. Protein kinase array (R&D systems ARY003B) was performed according to the manufacturers' description. All antibodies used in this paper are described in STAR methods.

human SGBS adipocytes = test: 2-deoxy-3H-glucose uptake in human SGBS adipocytes; assay type: cell-based
Protocol: (§2) Mouse and human pre-adipocytes culture and differentiation. Inguinal fat pads from 4-8 week old C57BL/6J male and female mice were dissected and mechanically digested for 10 min using spring scissors. Digested tissues were incubated in WAT isolation buffer (10 ml PBS, 2.4 U/ml dispase II (#04942078001, Roche), 10 mg/ml collagenase D (#11088858001, Roche) at 37° C. for 45 min. 20 mL growth media was added and the tissue suspension was filtered through a 100-μm cell strainer and centrifuged at 600×g for 5 min. The cell pellets were resuspended in 20 mL growth media, filtered through a 40-μm cell strainer, centrifuged at 600×g for 5 min, resuspended in 10 mL growth media, and plated in 10-cm collagen-coated dishes. The cells were cultured in growth media (DMEM/F-12 Glutamax, Thermo Fisher Scientific #10565018) supplemented with 10% fetal bovine serum. Two days post-confluency, differentiation was induced with growth media containing 1 μM rosiglitazone, 0.5 mM isobutylmethylxanthine, 1 μM dexamethasone, 5 μg/mL insulin. After two days, cells were re-fed with growth media containing 1 μM rosiglitazone and 5 μg/mL insulin. Cells were fully differentiated after 6-8 days. For ISM1 knockdown or overexpression in primary adipocytes using adenovirus, 500 μL crude virus was mixed with 500 μL fresh growth media containing 1 μM rosiglitazone and 5 μg/mL insulin was added to each well at day 2 of differentiation. At day 4, virus-containing media was removed and 500 μL fresh growth media without stimulators was added to each well. SGBS cells were differentiated as described previously (Fischer-Posovszky et al., 2008; Wabitsch et al., 2001). Briefly, cells were cultured in growth media DMEM/F-12 Glutamax, supplemented with 10% fetal bovine serum, 33 uM biotin, and 17 uM pantothenate. Two days post confluency, differentiation was induced with serum-free DMEM/F12 media containing 33 uM biotin, 17 uM pantothenate, 0.01 mg/ml transferrin, 20 nM insulin, 100 nM cortisol, 0.2 nM triiodothyronine, 25 nM dexamethasone, 0.25 mM isobutyl methylxanthine, and 2 μM rosiglitazone. After four days, cells were re-fed with growth media containing 0.01 mg/ml transferrin 20 nM insulin, 100 nM cortisol, 0.2 nM triiodothyronine. Cells were fully differentiated after day 8-10.
(§3) Glucose uptake. Glucose uptake was performed as previously described (You et al., 2017). Briefly, 2-Deoxy-d-[2,6-3H]-glucose was purchased from PerkinElmer NEN radiochemicals. Fully differentiated adipocytes were washed with KRH buffer and starved in 0.5% BSA in KRH buffer for 4 h. Indicated concentrations of insulin or ISM1 were added at indicated time points. Cells were treated with a mixture of 500 μM 2-deoxy-D-glucose and 1.71 μCimL^−1 2-Deoxy-D-[1,2-3H (N)]-glucose for another 10 min followed by three washes using ice cold KRH buffer containing 200 mM glucose. The passive glucose uptake in the presence of 50 uM CytoB was less than 12% of the total glucose uptake. Cells were solubilized in 1% SDS and radioactivity was measured by liquid scintillation counting.

primary mouse adipocytes = test: 2-deoxy-3H-glucose uptake in primary mouse adipocytes; assay type: cell-based
Protocol: as §2, §3

[2] = test system: differentiated 3T3-L1 adipocytes; test: 2-deoxy-3H-glucose uptake in differentiated 3T3-L1 adipocytes; assay type: cell-based; details: 1 h
Protocol: as §3

GLUT4 = GLUT4 translocation to the plasma membrane in primary adipocytes (immunostaining, fractionation); assay type: cell-based, mouse; details: 100 nM
Protocol: Biochemical analyses. Plasma insulin levels were measured using the Ultra-Sensitive Mouse Insulin ELISA kit (Crystal Chem Inc #90080). Plasma triglycerides were measured with Infinity triglyceride measurement kit (Thermo #TR22421) and tissue triglycerides were measured with a Triglyceride Colorimetric Assay Kit (Cayman #10010303). Lipolysis was measured in day 5 differentiated adipocytes after 4 hours of protein treatment using a glycerol release assay according to the protocol provided by the manufacturer (Abcam #ab133130). Plasma membrane protein extractions were performed according to the manufacturer's protocol (Abcam #ab65400).
Immunocytochemistry. Primary mouse preadipocytes were seeded onto collagen-coated 22 mm×22 mm coverslips and differentiated using the method above. On day 8, differentiated adipocytes were washed with PBS and starved in 0.5% BSA in KRH buffer (50 mM HEPES, 136 mM NaCl, 1.25 mM MgSO4, 1.25 mM CaCl2, 4.7 mM KCl, pH 7.4) for 3.5 h. Cells were treated with insulin or ISM1 for 30 min, followed by three washes with cold PBS. Cells were fixed with 4% PFA in PBS for 15 min at room temperature. After blocking with 2% BSA, 5% goat serum, 0.2% Triton-X in PBS for 1 hr, cells were incubated with diluted primary antibody at 4° C. overnight. The next day, cells were washed and incubated with secondary antibody on ice for 1 hr. Cells were imaged using confocal microscope (Leica TCS SP8). Hoechst (#33342, thermo fisher) was used as counterstain.

pAKT^S473 [3] = test: pAKT S473 signaling in 3T3-F442A cells (phosphokinase array, western blot); assay type: cell-based; details: 5 min
Protocol: as §1

[4] = test system: pAKT^T308, S6^S235/S236, PRAS40^Thr246, ERK1/2, PKA, PDK1, GSK3β; test: Time-course western blot of intracellular signaling pathways in 3T3-F442A cells; assay type: cell-based; details: 100 nM; time course
Protocol: as §1

[5] = test system: IGF-I-Receptor β Tyr1135/1136 or Insulin receptor Tyr1150/1151; test: Western blot of phosphorylated insulin and IGF receptors in 3T3-F442A cells; assay type: cell-based; details: 100 nM; 2 minutes
Protocol: as §1

pTyr = test: Western blot of pTyr levels; assay type: cell-based; details: 100 nM; 2 minutes
Protocol: as §1

AML12 hepatocytes = test: Lipogenesis assay (3H-acetate incorporation into lipids) in AML12 hepatocytes; assay type: cell-based, mouse; details: 50 nM insulin; 24 h
Protocol: Lipogenesis Assay. Primary hepatocytes or AML12 hepatocytes were washed twice with warm PBS and starved in serum-free DMEM overnight. Indicated concentrations of insulin with or without ISM1 were added at the same time. After 24 h, a mixture of 10 μM cold acetate and 2 μCi [3H]-Acetate (#NET003H005MC, PerkinElmer) was added to each well and cells were incubated for another 4 hr. Cells were washed with PBS twice and lysed using 0.1 N hydrogen chloride. Lipids were extracted by 2:1 chloroform-methanol (v/v). After centrifugation at 3000×g for 10 min, the lower phase was transferred to scintillation vials and radioactivity was measured by liquid scintillation counting.

SREBP1c, FAS, ACC = test: Lipogenic protein and gene expression in AML12 hepatocytes; assay type: cell-based, mouse; details: 50 nM insulin, with or without ISM1; 24 h
Protocol: (§4) Gene expression analysis. Total RNA from cultured cells or tissues was isolated using TRIzol (Thermo Fischer Scientific) and Rneasy mini kits (QIAGEN). RNA was reverse transcribed using the ABI high capacity cDNA synthesis kit. For qRT-PCR analysis, cDNA, primers and SYBR-green fluorescent dye (ABI) were used. Relative mRNA expression was determined by normalization with Cyclophilin levels using the ΔΔCt method.
as §1

srebp1c = test: Lipogenic gene and SREBP-1c protein expression in primary adipocytes; assay type: cell-based, mouse; details: primary adipocytes
Protocol: as §4, §1

DIO mice = test: Therapeutic ISM1, Metformin or combined administration for 21 days in DIO mice; assay type: in vivo, mouse; details: daily for 21 days; compared with vehicle
Protocol: Therapeutic ISM1 recombinant protein administration in vivo. All pharmacologic studies using recombinant ISM1 protein were performed in mice with established diet-induced obesity or non-alcoholic fatty liver disease (NAFLD). For all experiments, male C57BL/6J mice purchased from Jax were fed either a high-fat diet (#D12492, Research Diets) or a NAFLD diet (#D09100310, Research Diets) prior to ISM1 protein injections. In all experiments, mice were mock injected with saline for three days prior to protein or drug injections to prevent stress-induced weight loss. Mice were I.P. injected with vehicle (saline) or indicated doses of ISM1 protein diluted in saline. For the 14-day experiments in NAFLD mice, 7-weeks old mice were fed with NAFLD diet for 3 weeks and then mock injected with saline for 3 days prior to protein injections. The induction of lipid accumulation with NAFLD diet was verified by the significant increase in hepatic lipid levels compared with mice on chow diet at the same time point. NAFLD mice were then daily I.P. injected with either vehicle (saline containing 5% DMSO and 10% Kolliphor) or indicated doses of ISM1 protein (500 μg/kg or 5 mg/kg) or with FXR agonist (30 mg/kg, GW4064, Sigma-Aldrich, #G5172) diluted in vehicle (saline containing 5% DMSO and 10% Kolliphor). For the 21-day experiments in HFD mice, mice were mock injected with saline for three days prior to protein injections. Mice were then daily I.P. injected with either vehicle (saline) or 5 mg/kg of ISM1 protein diluted in saline. Metformin (100 mg/kg, Sigma, #317240) was diluted in saline and daily administered by oral gavage. All groups received control injections by I.P. and oral gavage. At the end of the experiments, mice and tissue weights were recorded. Tissues and plasma were collected and frozen for further analyses.
Glucose tolerance and insulin tolerance tests. For glucose tolerance tests, mice were fasted overnight and I.P. injected with glucose at 2 g/kg body weight. Blood glucose levels were measured at 0, 15, 30, 45, 60, 90 and 120 mins. For insulin tolerance tests, mice were fasted for 2 h, and I.P. injected with 0.75 U/kg insulin. Blood glucose levels were measured at 0, 15, 30, 45, 60, 90 and 120 mins.

[6] = pre-treated for 30 min, ISM1 or insulin 100 nM

COc1ncc(-c2ccc3nccc(-c4ccnnc4)c3c2)cc1NS(=O)(=O)c1ccc(F)cc1F [Omipalisib]
effect of inhibitor on pAKT^S473 phosphorylation induced by ISM1 and insulin (pAKT^S473 [1]): completely block

COc1ccccc1N1CCN(c2ncnc3n[nH]c(Br)c23)CC1 [DG2]
effect of inhibitor on S6^S235/S236 (pAKT^S473 [1]; [6]): dose-dependently inhibited
pAKT in presence of inhibitor (pAKT^S473 [1]; [6]): remained intact

CCC(=O)N1CCN(c2ccc(-n3c(=O)ccc4cnc5ccc(-c6cnc7ccccc7c6)cc5c43)cc2C(F)(F)F)CC1 [Torin]
effect of inhibitor on pAKT^S473 phosphorylation induced by ISM1 and insulin (pAKT^S473 [1]): fully ablates

C[C@]1(O)C[C@@H](c2nc(-c3ccc4ccc(-c5ccccc5)nc4c3)c3c(N)nccn32)C1 [OSI-906, reference compound]
insulin-induced glucose uptake in presence of inhibitor (human SGBS adipocytes; 50 nM OSI-906): significantly reduced
ISM1-induced glucose uptake in presence of inhibitor (human SGBS adipocytes; 50 nM OSI-906, 100 nM ISM1): not affected
insulin signaling in presence of inhibitor (pAKT^S473 [1]; 1000 nM OSI-906, insulin 100 nM): completely abolished
ISM1 signaling in presence of inhibitor (pAKT^S473 [1]; even at 1000 nM OSI-906, ISM1 100 nM): intact

Cc1ccc([N+](=O)[O-])cc1S(=O)(=O)N(C)/N=C/c1cnc2ccc(Br)cn12 [PIK]
effect of inhibitor on pAKT^S473 phosphorylation induced by ISM1 and insulin (pAKT^S473 [1]): completely block

insulin [reference compound]
concentration from which glucose uptake is increased (human SGBS adipocytes; doses ranging from 10 nM to 200 nM): 20 nM
glucose uptake induction compared with ISM1 (primary mouse adipocytes; 1 h): higher glucose induction than ISM1
induction of glucose uptake [2]: ~40 fold
GLUT4 in plasma membrane fraction (biochemical fractionation) (GLUT4; 4 h): translocation of GLUT4 to the plasma membrane
GLUT4 at cell surface (immunostaining, confocal microscopy) (GLUT4; compared with control cells): higher levels of GLUT4 at cell surface
dose at which dose-dependent increase in pAKT^S473 phosphorylation starts (pAKT^S473 [3]; increasing doses): 10 nM
pAKT^T308 phosphorylation [4]: phosphorylation at pAKT^T308 at all time points
IGF-R/IR phosphorylation [5]: induced IGF-R/IR phosphorylation
tyrosine phosphorylation of proteins (pTyr): induces phosphorylation of its receptors at larger molecular weights
de novo lipogenesis (AML12 hepatocytes): significant induction of lipogenesis
SREBP1c cleavage, FAS and ACC protein expression (SREBP1c, FAS, ACC): increased expression of pre-SREBP1c as well as the cleaved SREBP1, and increased protein expression of FAS and ACC
srebp1c expression under basal conditions (srebp1c): induces srebp1c expression

CN(C)C(=N)N=C(N)N [Metformin, reference compound]
fasting blood glucose (DIO mice): lower
glucose tolerance (GTT) (DIO mice): comparable effects on improving glucose tolerance

CCOc1cn(-c2ccc(F)cc2C)nc1C(=O)Nc1ccc(Oc2ccnc3cc(OC)c(OC)cc23)c(F)c1 [LDC1267]
effect of inhibitor on signaling induced by PDGFββ or insulin (pAKT^S473 [1]; any of the doses tested, insulin 200 nM, PDGF-ββ 20 ng/ml): neither the signaling induced by PDGFββ or insulin are inhibited
effect of inhibitor on ISM1-induced pAKT signaling (pAKT^S473 [1]; pre-treated for 30 min, ISM1 200 nM): inhibited

C=C1[C@@H](C)[C@H]2[C@H](Cc3ccccc3)NC(=O)[C@]23OC(=O)/C=C/[C@H](O)CCC[C@@H](C)C/C=C/[C@H]3[C@@H]1O [CytoB, reference compound]
passive glucose uptake as share of total glucose uptake (primary mouse adipocytes; 50 uM CytoB): less than 12%

Thrombospondin-1: his-tagged mouse Thrombospondin-1, control protein containing thrombospondin domains [reference compound]
bioactivity on pAKT^S473 (western blot) (pAKT^S473 [3]; 100 nM): no bioactivity

albumin [reference compound]
glucose uptake (protein control) (primary mouse adipocytes; 100 nM): no effect
